Data: patent publication US20100016232A1, “Treatment Of Inflammatory Diseases With Mammal Beta Defensins” (Novozymes A/S, priority 2008, published 2010)
Marks after values point to notes of the source that are not given here. Where no end group is shown, it is not given here.

Key:
[1] = tested on: IL-23, human CD14+ monocyte-derived dendritic cells; experiment: IL-23 in supernatants of human CD14+ monocyte-derived dendritic cells, ELISA; assay type: cell-based
Description: The DCs were prepared according to a modified protocol originally described by Romani et al. Briefly, peripheral blood mononuclear cells (PBMCs) were purified from buffy coats of healthy donors by centrifugation over a Ficoll-pague (GE-healthcare) gradient. Monocytes were isolated from PBMC by positive selection of CD14+ cells by magnetic beads (Dynal, Invitrogen) according to the manufacturer's instructions. The CD14+ monocytes were cultured in 6-well plates in RPMI/2% Human AB Serum recombinant human recombinant granulocyte-macrophage colony-stimulating factor (GM-CSF, 20 ng/ml) and IL-4 (20 ng/ml) (PeproTech) for 6 days, replenishing the medium/cytokines after 2 and 5 days.
Cell culture supernatants were collected and stored at −80° C. Amounts of IL-23 was measured by standard sandwich ELISA using commercially available antibodies and standards according to the manufacturer's protocols (eBioscience).

[2] = tested on: DSS-induced colitis in the mouse; experiment: 10-day DSS-induced colitis, Disease Activity Index (Example 6); assay type: in vivo; parameters: key: clinical Disease Activity Index (stool, bleeding, weight loss)
Description: Daily clinical assessment of DSS-treated animals was carried out, with the calculation of a validated clinical Disease Activity Index (DAI) ranging from 0 to 4 according to the following parameters: stool consistency, presence or absence of rectal bleeding and weight loss:
Example 6 was carried out essentially as described in Example 5. The differences are indicated below.
Animals were divided into 9 experimental groups.
The animals in group F received one dose i.v. and another dose s.c. (12 hours after the i.v. dose) of the corresponding test item for 10 consecutive days.
The animals in group G received one dose every two days of the corresponding test item for 10 consecutive days.
Methylprednisolone was given orally at a dose of 1 mg/kg (group H) and 10 mg/kg (group J) in a dosing volume of 5 ml/kg body weight, once daily for 10 consecutive days.

Substance: hBD2: human beta defensin 2, SEQ ID NO:2; produced recombinantly in E. coli (Example 1); hBD2 of Tables 16-18 was prepared by chemical synthesis (GIGDPVTCLKSGAICHPVFCPRRYKQIGTCGLPGTKCCKKP; ends and bridges not checked; cysteine pairing not given here; listed as Homo sapiens)
- IL-23 ([1]; LPS (100 ng/ml) and IFN-γ (20 ng/ml), hBD2 1 μg/ml): 3833 pg/mL
- IL-23 ([1]; LPS (100 ng/ml) and IFN-γ (20 ng/ml), hBD2 10 μg/ml): 3308 pg/mL
- IL-23 ([1]; LPS (100 ng/ml) and IFN-γ (20 ng/ml), hBD2 30 μg/ml): 3042 pg/mL
- IL-23 ([1]; LPS (100 ng/ml) and IFN-γ (20 ng/ml), hBD2 100 μg/ml): 2145 pg/mL
- IL-23 ([1]; Unstimulated, hBD2 10 μg/ml): 451 pg/mL
- DAI score, mean ([2]; Group B, 1 mg/kg i.v., Day 1): 0.00
- DAI score, mean ([2]; Group B, 1 mg/kg i.v., Day 2): 0.10
- DAI score, mean ([2]; Group B, 1 mg/kg i.v., Day 3): 0.20
- DAI score, mean ([2]; Group B, 1 mg/kg i.v., Day 4): 0.40
- DAI score, mean ([2]; Group B, 1 mg/kg i.v., Day 5): 0.30
- DAI score, mean ([2]; Group B, 1 mg/kg i.v., Day 6): 2.30*
- DAI score, mean ([2]; Group B, 1 mg/kg i.v., Day 7): 4.40*
- DAI score, mean ([2]; Group B, 1 mg/kg i.v., Day 8): 6.89
- DAI score, mean ([2]; Group B, 1 mg/kg i.v., Day 9): 5.00*
- DAI score, mean ([2]; Group B, 1 mg/kg i.v., Day 10): 5.78*
- DAI score, mean ([2]; Group C, 0.1 mg/kg i.v., Day 1): 0.00
- DAI score, mean ([2]; Group C, 0.1 mg/kg i.v., Day 2): 0.44
- DAI score, mean ([2]; Group C, 0.1 mg/kg i.v., Day 3): 0.89
- DAI score, mean ([2]; Group C, 0.1 mg/kg i.v., Day 4): 0.56
- DAI score, mean ([2]; Group C, 0.1 mg/kg i.v., Day 5): 0.78
- DAI score, mean ([2]; Group C, 0.1 mg/kg i.v., Day 6): 1.56**
- DAI score, mean ([2]; Group C, 0.1 mg/kg i.v., Day 7): 4.13*
- DAI score, mean ([2]; Group C, 0.1 mg/kg i.v., Day 8): 5.43*
- DAI score, mean ([2]; Group C, 0.1 mg/kg i.v., Day 9): 6.29*
- DAI score, mean ([2]; Group C, 0.1 mg/kg i.v., Day 10): 6.86
- DAI score, mean ([2]; Group D, 0.01 mg/kg i.v., Day 1): 0.00
- DAI score, mean ([2]; Group D, 0.01 mg/kg i.v., Day 2): 0.00
- DAI score, mean ([2]; Group D, 0.01 mg/kg i.v., Day 3): 0.30
- DAI score, mean ([2]; Group D, 0.01 mg/kg i.v., Day 4): 0.40
- DAI score, mean ([2]; Group D, 0.01 mg/kg i.v., Day 5): 1.60
- DAI score, mean ([2]; Group D, 0.01 mg/kg i.v., Day 6): 2.70
- DAI score, mean ([2]; Group D, 0.01 mg/kg i.v., Day 7): 6.50
- DAI score, mean ([2]; Group D, 0.01 mg/kg i.v., Day 8): 6.20*
- DAI score, mean ([2]; Group D, 0.01 mg/kg i.v., Day 9): 4.60***
- DAI score, mean ([2]; Group D, 0.01 mg/kg i.v., Day 10): 5.20**
- DAI score, mean ([2]; Group E, 0.001 mg/kg i.v., Day 1): 0.00
- DAI score, mean ([2]; Group E, 0.001 mg/kg i.v., Day 2): 0.00
- DAI score, mean ([2]; Group E, 0.001 mg/kg i.v., Day 3): 0.10
- DAI score, mean ([2]; Group E, 0.001 mg/kg i.v., Day 4): 0.20
- DAI score, mean ([2]; Group E, 0.001 mg/kg i.v., Day 5): 0.40
- DAI score, mean ([2]; Group E, 0.001 mg/kg i.v., Day 6): 3.40
- DAI score, mean ([2]; Group E, 0.001 mg/kg i.v., Day 7): 7.11
- DAI score, mean ([2]; Group E, 0.001 mg/kg i.v., Day 8): 8.56
- DAI score, mean ([2]; Group E, 0.001 mg/kg i.v., Day 9): 5.89**
- DAI score, mean ([2]; Group E, 0.001 mg/kg i.v., Day 10): 6.67
- DAI score, mean ([2]; Group F, 0.1 mg/kg twice daily i.v. + s.c., Day 1): 0.00
- DAI score, mean ([2]; Group F, 0.1 mg/kg twice daily i.v. + s.c., Day 2): 0.30
- DAI score, mean ([2]; Group F, 0.1 mg/kg twice daily i.v. + s.c., Day 3): 0.70
- DAI score, mean ([2]; Group F, 0.1 mg/kg twice daily i.v. + s.c., Day 4): 0.70
- DAI score, mean ([2]; Group F, 0.1 mg/kg twice daily i.v. + s.c., Day 5): 0.60
- DAI score, mean ([2]; Group F, 0.1 mg/kg twice daily i.v. + s.c., Day 6): 0.70***
- DAI score, mean ([2]; Group F, 0.1 mg/kg twice daily i.v. + s.c., Day 7): 3.50**
- DAI score, mean ([2]; Group F, 0.1 mg/kg twice daily i.v. + s.c., Day 8): 4.00***
- DAI score, mean ([2]; Group F, 0.1 mg/kg twice daily i.v. + s.c., Day 9): 2.90***
- DAI score, mean ([2]; Group F, 0.1 mg/kg twice daily i.v. + s.c., Day 10): 4.50***
- DAI score, mean ([2]; Group G, 0.1 mg/kg i.v. every 2. day, Day 1): 0.00
- DAI score, mean ([2]; Group G, 0.1 mg/kg i.v. every 2. day, Day 2): 0.20
- DAI score, mean ([2]; Group G, 0.1 mg/kg i.v. every 2. day, Day 3): 0.40
- DAI score, mean ([2]; Group G, 0.1 mg/kg i.v. every 2. day, Day 4): 0.50
- DAI score, mean ([2]; Group G, 0.1 mg/kg i.v. every 2. day, Day 5): 0.50
- DAI score, mean ([2]; Group G, 0.1 mg/kg i.v. every 2. day, Day 6): 2.90
- DAI score, mean ([2]; Group G, 0.1 mg/kg i.v. every 2. day, Day 7): 6.50
- DAI score, mean ([2]; Group G, 0.1 mg/kg i.v. every 2. day, Day 8): 8.70
- DAI score, mean ([2]; Group G, 0.1 mg/kg i.v. every 2. day, Day 9): 7.50
- DAI score, mean ([2]; Group G, 0.1 mg/kg i.v. every 2. day, Day 10): 6.56
